Test results as given in ChEMBL document CHEMBL4414672, “Synthesis of certain benzothieno[3,2-d]pyrimidine derivatives as a selective SIRT2 inhibitors” (Eur J Med Chem, 2020).

Columns and labels:
Format in all cases: functional
UACC-257 = assay: Growth inhibition of human UACC257 cells at 10^-5 M incubated for 48 hrs by sulforhodamine B assay; settings: UACC-257, 48 h, read-out: GI
U-251 = assay: Growth inhibition of human U251 cells at 10^-5 M incubated for 48 hrs by sulforhodamine B assay; settings: U-251, 48 h, read-out: GI
UO-31 = assay: Growth inhibition of human UO31 cells at 10^-5 M incubated for 48 hrs by sulforhodamine B assay; settings: UO-31, 48 h, read-out: GI
COLO 205 = assay: Growth inhibition of human COLO205 cells at 10^-5 M incubated for 48 hrs by sulforhodamine B assay; settings: COLO 205, 48 h, read-out: GI
IGROV-1 = assay: Growth inhibition of human IGROV1 cells at 10^-5 M incubated for 48 hrs by sulforhodamine B assay; settings: IGROV-1, 48 h, read-out: GI
ACHN = assay: Growth inhibition of human ACHN cells at 10^-5 M incubated for 48 hrs by sulforhodamine B assay; settings: read-out: GI
SK-MEL-5 = assay: Growth inhibition of human SK-MEL-5 cells at 10^-5 M incubated for 48 hrs by sulforhodamine B assay; settings: SK-MEL-5, 48 h, read-out: GI
MCF7 = assay: Growth inhibition of human MCF7 cells at 10^-5 M incubated for 48 hrs by sulforhodamine B assay; settings: MCF7, 48 h, read-out: GI
LOX IMVI = assay: Growth inhibition of human LOXIMVI cells at 10^-5 M incubated for 48 hrs by sulforhodamine B assay; settings: read-out: GI
NCI-H460 = assay: Growth inhibition of human NCI-H460 cells at 10^-5 M incubated for 48 hrs by sulforhodamine B assay; settings: NCI-H460, 48 h, read-out: GI
SNB-75 = assay: Growth inhibition of human SNB75 cells at 10^-5 M incubated for 48 hrs by sulforhodamine B assay; settings: SNB-75, 48 h, read-out: GI
SF-295 = assay: Growth inhibition of human SF295 cells at 10^-5 M incubated for 48 hrs by sulforhodamine B assay; settings: SF-295, 48 h, read-out: GI
A549 = assay: Growth inhibition of human A549/ATCC cells at 10^-5 M incubated for 48 hrs by sulforhodamine B assay; settings: A549, 48 h, read-out: GI
EKVX = assay: Growth inhibition of human EKVX cells at 10^-5 M incubated for 48 hrs by sulforhodamine B assay; settings: read-out: GI
786-0 = assay: Growth inhibition of human 786-0 cells at 10^-5 M incubated for 48 hrs by sulforhodamine B assay; settings: 786-0, 48 h, read-out: GI
NCI/ADR-RES = assay: Growth inhibition of human NCI/ADR-RES cells at 10^-5 M incubated for 48 hrs by sulforhodamine B assay; settings: read-out: GI
OVCAR-4 = assay: Growth inhibition of human OVCAR4 cells at 10^-5 M incubated for 48 hrs by sulforhodamine B assay; settings: OVCAR-4, 48 h, read-out: GI
SW-620 = assay: Growth inhibition of human SW620 cells at 10^-5 M incubated for 48 hrs by sulforhodamine B assay; settings: SW-620, 48 h, read-out: GI
MDA-MB-435 = assay: Growth inhibition of human MDA-MB-435 cells at 10^-5 M incubated for 48 hrs by sulforhodamine B assay; settings: MDA-MB-435, 48 h, read-out: GI
CAKI-1 = assay: Growth inhibition of human Caki1 cells at 10^-5 M incubated for 48 hrs by sulforhodamine B assay; settings: CAKI-1, 48 h, read-out: GI
NCI-H522 = assay: Growth inhibition of human NCI-H522 cells at 10^-5 M incubated for 48 hrs by sulforhodamine B assay; settings: NCI-H522, 48 h, read-out: GI
MOLT-4 = assay: Growth inhibition of human MOLT4 cells at 10^-5 M incubated for 48 hrs by sulforhodamine B assay; settings: MOLT-4, 48 h, read-out: GI
CCRF-CEM = assay: Growth inhibition of human CCRF-CEM cells at 10^-5 M incubated for 48 hrs by sulforhodamine B assay; settings: read-out: GI
SF-268 = assay: Growth inhibition of human SF268 cells at 10^-5 M incubated for 48 hrs by sulforhodamine B assay; settings: SF-268, 48 h, read-out: GI
DU-145 = assay: Growth inhibition of human DU145 cells at 10^-5 M incubated for 48 hrs by sulforhodamine B assay; settings: DU-145, 48 h, read-out: GI
SK-MEL-28 = assay: Growth inhibition of human SK-MEL-28 cells at 10^-5 M incubated for 48 hrs by sulforhodamine B assay; settings: SK-MEL-28, 48 h, read-out: GI
OVCAR-5 = assay: Growth inhibition of human OVCAR5 cells at 10^-5 M incubated for 48 hrs by sulforhodamine B assay; settings: OVCAR-5, 48 h, read-out: GI
HCC 2998 = assay: Growth inhibition of human HCC2998 cells at 10^-5 M incubated for 48 hrs by sulforhodamine B assay; settings: HCC 2998, 48 h, read-out: GI
MDA-MB-468 = assay: Growth inhibition of human MDA-MB-468 cells at 10^-5 M incubated for 48 hrs by sulforhodamine B assay; settings: MDA-MB-468, 48 h, read-out: GI
BT-549 = assay: Growth inhibition of human BT549 cells at 10^-5 M incubated for 48 hrs by sulforhodamine B assay; settings: BT-549, 48 h, read-out: GI
HT-29 = assay: Growth inhibition of human HT-29 cells at 10^-5 M incubated for 48 hrs by sulforhodamine B assay; settings: HT-29, 48 h, read-out: GI
NCI-H226 = assay: Growth inhibition of human NCI-H226 cells at 10^-5 M incubated for 48 hrs by sulforhodamine B assay; settings: NCI-H226, 48 h, read-out: GI
HL-60(TB) = assay: Growth inhibition of human HL-60(TB) cells at 10^-5 M incubated for 48 hrs by sulforhodamine B assay; settings: HL-60, 48 h, read-out: GI
HCT-15 = assay: Growth inhibition of human HCT15 cells at 10^-5 M incubated for 48 hrs by sulforhodamine B assay; settings: HCT-15, 48 h, read-out: GI
Hs-578T = assay: Growth inhibition of human Hs 578T cells at 10^-5 M incubated for 48 hrs by sulforhodamine B assay; settings: read-out: GI
HOP-62 = assay: Growth inhibition of human HOP62 cells at 10^-5 M incubated for 48 hrs by sulforhodamine B assay; settings: HOP-62, 48 h, read-out: GI
KM12 = assay: Growth inhibition of human KM12 cells at 10^-5 M incubated for 48 hrs by sulforhodamine B assay; settings: KM12, 48 h, read-out: GI
HCT-116 = assay: Growth inhibition of human HCT116 cells at 10^-5 M incubated for 48 hrs by sulforhodamine B assay; settings: HCT-116, 48 h, read-out: GI

Row | SMILES | inhibition of growth at 10 µM (UACC-257) [%] | inhibition of growth at 10 µM (U-251) [%] | inhibition of growth at 10 µM (UO-31) [%] | inhibition of growth at 10 µM (COLO 205) [%] | inhibition of growth at 10 µM (IGROV-1) [%] | inhibition of growth at 10 µM (ACHN) [%] | inhibition of growth at 10 µM (SK-MEL-5) [%] | inhibition of growth at 10 µM (MCF7) [%] | inhibition of growth at 10 µM (LOX IMVI) [%] | inhibition of growth at 10 µM (NCI-H460) [%] | inhibition of growth at 10 µM (SNB-75) [%] | inhibition of growth at 10 µM (SF-295) [%] | inhibition of growth at 10 µM (A549) [%] | inhibition of growth at 10 µM (EKVX) [%] | inhibition of growth at 10 µM (786-0) [%] | inhibition of growth at 10 µM (NCI/ADR-RES) [%] | inhibition of growth at 10 µM (OVCAR-4) [%] | inhibition of growth at 10 µM (SW-620) [%] | inhibition of growth at 10 µM (MDA-MB-435) [%] | inhibition of growth at 10 µM (CAKI-1) [%] | also measured
1 | Cc1cc(C)n(C2=Nc3c(sc4ccc(Cl)cc34)C(c3cccc([N+](=O)[O-])c3)N2)n1 (stereo unspecified) | -4.2 | -3.95 | 43.7 | -5.86 | 20.6 | 11.2 | 4.68 | 20.6 | 0.51 | 7.9 | 7.66 | 2.13 | 3.8 | 24.2 | -6.44 | -2.52 | -2.96 | -3.97 | -3.52 | 26.4 | inhibition of growth at 10 µM (NCI-H522): 10.8%; inhibition of growth at 10 µM (MOLT-4): 16.5%; inhibition of growth at 10 µM (CCRF-CEM): -7.22%; inhibition of growth at 10 µM (SF-268): 1.15%; inhibition of growth at 10 µM (DU-145): -11.3%; inhibition of growth at 10 µM (SK-MEL-28): -16%; inhibition of growth at 10 µM (OVCAR-5): -4.21%; inhibition of growth at 10 µM (HCC 2998): -5.86%; inhibition of growth at 10 µM (MDA-MB-468): 8.16%; inhibition of growth at 10 µM (BT-549): -17.8%; inhibition of growth at 10 µM (HT-29): -2.6%; inhibition of growth at 10 µM (NCI-H226): 17.1%; inhibition of growth at 10 µM (HL-60(TB)): -2.76%; inhibition of growth at 10 µM (HCT-15): -0.63%; inhibition of growth at 10 µM (Hs-578T): 0.17%; inhibition of growth at 10 µM (HOP-62): 18.2%; inhibition of growth at 10 µM (KM12): 2.61%; inhibition of growth at 10 µM (HCT-116): 5.98%
2 | N=C1Nc2c(sc3ccc(Cl)cc23)C(c2ccccc2O)N1 (stereo unspecified) | -10.3 | -7.81 | 11.9 | -6.79 | 17.4 | 18.8 | 2.66 | 13.9 | -0.7 | 0.95 | 22.4 | -6.6 | -4.84 | 17.6 | -0.24 | 7.92 | 12.3 | 1.38 | 2 | -15.6 | inhibition of growth at 10 µM (NCI-H522): 7.68%; inhibition of growth at 10 µM (MOLT-4): 0.44%; inhibition of growth at 10 µM (CCRF-CEM): -8.23%; inhibition of growth at 10 µM (SF-268): 6.19%; inhibition of growth at 10 µM (DU-145): 23.3%; inhibition of growth at 10 µM (SK-MEL-28): -16.7%; inhibition of growth at 10 µM (OVCAR-5): -1.61%; inhibition of growth at 10 µM (HCC 2998): -22.2%; inhibition of growth at 10 µM (MDA-MB-468): 2.58%; inhibition of growth at 10 µM (BT-549): 17.5%; inhibition of growth at 10 µM (HT-29): -6.21%; inhibition of growth at 10 µM (NCI-H226): 12.7%; inhibition of growth at 10 µM (HL-60(TB)): -8.53%; inhibition of growth at 10 µM (HCT-15): -5.8%; inhibition of growth at 10 µM (Hs-578T): -10.5%; inhibition of growth at 10 µM (HOP-62): 9.32%; inhibition of growth at 10 µM (KM12): -3.63%; inhibition of growth at 10 µM (HCT-116): 10.7%
